Laboratory results from patent US20260097133A1, “EPIGENETIC EDITING TOOL FOR TARGETING HEPATITIS B VIRUS GENE” (priority 2023, published 2026).

Test system: HBV genome (type A, GenBank: AF305422.1)
Assay: Knockdown of HBV markers in transgenic HBV mice
Type: in vivo, mice (C57BL/6-HBV)
Details: after single administration
Source text: Transgenic HBV mice (Beijing Vitalstar Biotechnology Co., Ltd., C57BL/6-HBV, subsequent feeding and testing were completed by Beijing Vitalstar) were used in this validation experiment. The genome of this strain of mice was inserted with a 1.28-fold length HBV genome (type A, GenBank: AF305422.1). […] Therefore, this sgRNA was used to prepare the pharmaceutical composition provided in the present application and perform epigenetic editing in transgenic HBV mice to validate the inhibitory effect of this drug on the expression of integrated HBV genes in an in vivo model.
The composition comprising the mRNA encoding EPIREG (sequence: SEQ ID NO: 1191) and sgRNA numbered D99 (BSG35) (mass ratio of mRNA to sgRNA of 1:1) was delivered to transgenic HBV mice (at a dose of 10 mg/kg) by means of tail vein injection of lipid nanoparticles (LNPs) (LNP preparation reference: https://doi.org/10.1038/s41586-021-03534-y). PBS (200 ul) was injected as a negative control, and the antisense oligonucleotide (ASO) drug Bepirovirsen (GSK3228836, dose of 200 mg/kg) was used as a positive control, which could target all HBV RNAs and thus reduce the expression of HBV antigens. After administration, blood was collected regularly in each group to detect the levels of HBV surface antigen (HBsAg) and core antigen (HBcAg/HBeAg) secreted in serum, and the level of HBV DNA was detected by qPCR. […]

With Bepirovirsen [ASO] the “persistence of effect on HBV markers” value was “gradually returned to their original levels”.
